Measurements taken from PubChem BioAssay AID256 (DTP/NCI, 2004).
“And” between values parts separate entries of the source, which are not always exact repeats. Equal values may be shown once. Inconclusive results and toxic doses are left out. Rule for the calls: active = survival T/C of 150% or more; inactive = T/C below 125% in these data. Residues, ends and D or L forms follow the SMILES beside them. *: point of attachment. Trt = c1ccc(C(c2ccccc2)(c2ccccc2)*)cc1; Cbz = O=C(OCc1ccccc1)*; Bn = c1ccc(C*)cc1; βAla = NCCC(=O)O

Test system: CD2F1 mice, L1210 leukemia ip, survival T/C
Experiment: NCI In Vivo Anticancer Drug Screen. Data for tumor model L1210 Leukemia (intraperitoneal) in CD2F1 (CDF1) mice
Details: higher = longer survival
Method in brief: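 Antitumor effect is scored in animals hosting a serially transplanted tumor. Values compare compound-dosed animals against vehicle-only controls as a simple quotient.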

[1] = endpoint: mean survival time, dose: 100.0 mg/kg/injection, schedule: Q04DX002 (ip), vehicle: saline with Tween-80
[2] = endpoint: mean survival time, dose: 200.0 mg/kg/injection, schedule: Q04DX002 (ip), vehicle: saline with Tween-80
[3] = endpoint: mean survival time, dose: 400.0 mg/kg/injection, schedule: Q04DX002 (ip), vehicle: saline with Tween-80
[4] = endpoint: mean survival time, dose: 100.0 mg/kg/injection, schedule: Q04DX003 (ip), vehicle: saline with Tween-80
[5] = endpoint: mean survival time, dose: 200.0 mg/kg/injection, schedule: Q04DX003 (ip), vehicle: saline with Tween-80
[6] = endpoint: mean survival time, dose: 400.0 mg/kg/injection, schedule: Q04DX003 (ip), vehicle: saline with Tween-80
[7] = endpoint: mean survival time, dose: 100.0 mg/kg/injection, schedule: Q04DX003 (ip), vehicle: saline
[8] = endpoint: mean survival time, dose: 200.0 mg/kg/injection, schedule: Q04DX003 (ip), vehicle: saline
[9] = endpoint: mean survival time, dose: 400.0 mg/kg/injection, schedule: Q04DX003 (ip), vehicle: saline
[10] = endpoint: mean survival time, dose: 100.0 mg/kg/injection, schedule: Q01DX009 (ip), vehicle: Klucel (hydroxypropylcellulose) (HPC)
[11] = endpoint: mean survival time, dose: 50.0 mg/kg/injection, schedule: Q04DX003 (ip), vehicle: Klucel (hydroxypropylcellulose) (HPC)
[12] = endpoint: mean survival time, dose: 100.0 mg/kg/injection, schedule: Q04DX003 (ip), vehicle: Klucel (hydroxypropylcellulose) (HPC)
[13] = endpoint: mean survival time, dose: 100.0 mg/kg/injection, schedule: Q01DX009 (ip), vehicle: saline with Tween-80
[14] = endpoint: mean survival time, dose: 200.0 mg/kg/injection, schedule: Q01DX009 (ip), vehicle: saline with Tween-80
[15] = endpoint: mean survival time, dose: 400.0 mg/kg/injection, schedule: Q01DX009 (ip), vehicle: saline with Tween-80
[16] = endpoint: mean survival time, dose: 100.0 mg/kg/injection, schedule: Q01DX001 (ip), vehicle: saline with Tween-80
[17] = endpoint: mean survival time, dose: 200.0 mg/kg/injection, schedule: Q01DX001 (ip), vehicle: saline with Tween-80
[18] = endpoint: mean survival time, dose: 400.0 mg/kg/injection, schedule: Q01DX001 (ip), vehicle: saline with Tween-80
[19] = endpoint: mean survival time, dose: 12.5 mg/kg/injection, schedule: Q01DX009 (ip), vehicle: saline with Tween-80
[20] = endpoint: mean survival time, dose: 50.0 mg/kg/injection, schedule: Q01DX009 (ip), vehicle: saline with Tween-80

Measured: T/C

CCOC(=O)C(C#N)C(=N)C#N (stereo unspecified)
inactive: [1] 93 % of control | [2] 89 % of control | [3] 110 % of control

O=C1C(c2ccccc2)=C(c2ccccc2)C2=CC(c3ccccc3)=C(c3ccccc3)C(c3ccccc3)C12Br (stereo unspecified)
inactive: [4] 90 % of control | [5] 90 % of control | [6] 89 % of control

O=C(O)CCCc1ccc(Cl)cc1
inactive: [7] 106 % of control | [8] 106 % of control | [9] 98 % of control

CC(O)(CCCCCCCC(C)(O)c1ccccc1)c1ccccc1 (stereo unspecified)
inactive: [4] 113 % of control | [5] 103 % of control | [6] 88 % of control

O=C(CC(O)(C(F)(F)F)C(F)(F)F)c1ccc(Cl)c2ccccc12
inactive: endpoint: mean survival time, dose: 100.0 mg/kg/injection, schedule: Q01DX001 (ip), vehicle: other 102 % of control | endpoint: mean survival time, dose: 200.0 mg/kg/injection, schedule: Q01DX001 (ip), vehicle: other 100 % of control | endpoint: mean survival time, dose: 400.0 mg/kg/injection, schedule: Q01DX001 (ip), vehicle: other 96 % of control

NCCSSCC(N)C(=O)O (stereo unspecified)
inactive: [4] 106 % of control | [5] 103 % of control | [6] 94 % of control

[Cl][Co]([Cl])[Cl].[NH-]CCCN.[NH-]CCC[NH-]
inactive: [10] 113 % of control | [7] 101 % of control | endpoint: mean survival time, dose: 200.0 mg/kg/injection, schedule: Q01DX009 (ip), vehicle: Klucel (hydroxypropylcellulose) (HPC) 113 % of control | [8] 104 % of control | endpoint: mean survival time, dose: 400.0 mg/kg/injection, schedule: Q01DX009 (ip), vehicle: Klucel (hydroxypropylcellulose) (HPC) 104 % of control | [9] 104 % of control

COC(=O)C(CSC(c1ccccc1)(c1ccccc1)c1ccccc1)NC(=O)C(CSCc1ccccc1)NC(=O)CCNC(=O)OCc1ccccc1 (stereo unspecified) ({Cbz-βAla}-Cys(Bn)-Cys(Trt)-OMe; configuration not given here)
inactive: endpoint: median survival time, dose: 12.5 mg/kg/injection, schedule: Q01DX009 (ip), vehicle: Klucel (hydroxypropylcellulose) (HPC) 101 % of control | endpoint: median survival time, dose: 25.0 mg/kg/injection, schedule: Q01DX009 (ip), vehicle: Klucel (hydroxypropylcellulose) (HPC) 101 % of control | endpoint: median survival time, dose: 50.0 mg/kg/injection, schedule: Q01DX009 (ip), vehicle: Klucel (hydroxypropylcellulose) (HPC) 101 % of control | endpoint: median survival time, dose: 100.0 mg/kg/injection, schedule: Q01DX009 (ip), vehicle: Klucel (hydroxypropylcellulose) (HPC) 108 % of control | endpoint: median survival time, dose: 200.0 mg/kg/injection, schedule: Q01DX009 (ip), vehicle: Klucel (hydroxypropylcellulose) (HPC) 103 % of control

[Cl][Pt+2][Cl].[NH-]c1ccc(S(=O)(=O)Nc2ccccn2)cc1.[NH-]c1ccc(S(=O)(=O)Nc2ccccn2)cc1
inactive: endpoint: mean survival time, dose: 25.0 mg/kg/injection, schedule: Q04DX003 (ip), vehicle: saline with Tween-80 97 % of control | endpoint: mean survival time, dose: 50.0 mg/kg/injection, schedule: Q04DX003 (ip), vehicle: saline with Tween-80 97 % of control | [4] 96 % of control | [5] 102 % of control | [6] 107 % of control

CC(=O)NC1=C(Sc2ccc([N+](=O)[O-])cc2)C(=O)c2ccccc2C1=O
inactive: endpoint: mean survival time, dose: 75.0 mg/kg/injection, schedule: Q01DX001 (ip), vehicle: saline 98 % of control

CC(C)(N)CO
inactive: endpoint: mean survival time, dose: 50.0 mg/kg/injection, schedule: Q01DX009 (ip), vehicle: saline 88 % of control | endpoint: mean survival time, dose: 100.0 mg/kg/injection, schedule: Q01DX009 (ip), vehicle: saline 100 % of control | endpoint: mean survival time, dose: 200.0 mg/kg/injection, schedule: Q01DX009 (ip), vehicle: saline 100 % of control

NNC(=O)CNc1cccc(Br)c1
inactive: endpoint: mean survival time, dose: 12.5 mg/kg/injection, schedule: Q01DX009 (ip), vehicle: Klucel (hydroxypropylcellulose) (HPC) 98 % of control | endpoint: mean survival time, dose: 25.0 mg/kg/injection, schedule: Q01DX009 (ip), vehicle: Klucel (hydroxypropylcellulose) (HPC) 101 % of control | endpoint: mean survival time, dose: 50.0 mg/kg/injection, schedule: Q01DX009 (ip), vehicle: Klucel (hydroxypropylcellulose) (HPC) 101 % of control | [11] 101 % of control | endpoint: mean survival time, dose: 100.0 mg/kg/injection, schedule: Q01DX001 (ip), vehicle: Klucel (hydroxypropylcellulose) (HPC) 102 % of control | [10] 97 % of control | [12] 98 % of control | endpoint: mean survival time, dose: 200.0 mg/kg/injection, schedule: Q01DX001 (ip), vehicle: Klucel (hydroxypropylcellulose) (HPC) 98 % of control | endpoint: mean survival time, dose: 200.0 mg/kg/injection, schedule: Q04DX003 (ip), vehicle: Klucel (hydroxypropylcellulose) (HPC) 111 % of control

CC(C)OC(=O)Nc1ncn[nH]1
inactive: [1] 104 % of control | [2] 108 % of control | [3] 93 % of control

COC(=O)CC1(O)C=CC(=O)C=C1
inactive: endpoint: mean survival time, dose: 0.75 mg/kg/injection, schedule: Q01DX009 (ip), vehicle: Klucel (hydroxypropylcellulose) (HPC) 104 % of control | endpoint: mean survival time, dose: 1.5 mg/kg/injection, schedule: Q01DX009 (ip), vehicle: Klucel (hydroxypropylcellulose) (HPC) 98 % of control | endpoint: mean survival time, dose: 3.0 mg/kg/injection, schedule: Q01DX009 (ip), vehicle: Klucel (hydroxypropylcellulose) (HPC) 95 % of control | endpoint: mean survival time, dose: 6.0 mg/kg/injection, schedule: Q01DX009 (ip), vehicle: Klucel (hydroxypropylcellulose) (HPC) 92 % of control | endpoint: mean survival time, dose: 12.0 mg/kg/injection, schedule: Q01DX009 (ip), vehicle: Klucel (hydroxypropylcellulose) (HPC) 95 % of control

COc1ccc(NC(=O)Oc2ccccc2-c2ccccc2)cc1
inactive: [13] 98 % of control | [14] 89 % of control | [15] 89 % of control

CN(C(=O)C(=O)c1ccccc1NC(=O)c1ccc(Cl)cc1)c1ccccc1
inactive: endpoint: mean survival time, dose: 25.0 mg/kg/injection, schedule: Q04DX003 (ip), vehicle: Klucel (hydroxypropylcellulose) (HPC) 102 % of control | [11] 106 % of control | [12] 104 % of control

O=C1C(=O)c2ccccc2C(O)=C1CNCCO
inactive: [16] 97 % of control | [17] 94 % of control | [18] 94 % of control

NCCCCCCN=C(N)C(N)=NCCCCCCN
inactive: endpoint: mean survival time, dose: 3.13 mg/kg/injection, schedule: Q04DX002 (ip), vehicle: saline 116 % of control | endpoint: mean survival time, dose: 6.25 mg/kg/injection, schedule: Q04DX002 (ip), vehicle: saline 90 % of control | endpoint: mean survival time, dose: 12.5 mg/kg/injection, schedule: Q04DX002 (ip), vehicle: saline 101 % of control

COc1cccc(CN2CCNCC2)c1
inactive: endpoint: mean survival time, dose: 25.0 mg/kg/injection, schedule: Q01DX005 (ip), vehicle: water 102 % of control | endpoint: mean survival time, dose: 50.0 mg/kg/injection, schedule: Q01DX005 (ip), vehicle: water 102 % of control | endpoint: mean survival time, dose: 100.0 mg/kg/injection, schedule: Q01DX005 (ip), vehicle: water 102 % of control

CN(C)c1ccc(C(=N)c2ccc(N(C)C)cc2)cc1 (tested in a mixture with another compound)
inactive: [19] 98 % of control | [20] 93 % of control

BrC1c2cccc3cccc(c23)C1Br (stereo unspecified)
inactive: endpoint: mean survival time, dose: 6.25 mg/kg/injection, schedule: Q01DX009 (ip), vehicle: saline with Tween-80 115 % of control | [19] 108 % of control | endpoint: mean survival time, dose: 25.0 mg/kg/injection, schedule: Q01DX009 (ip), vehicle: saline with Tween-80 115 % of control and 106 % of control | [20] 115 % of control and 105 % of control | [13] 100 % of control and 112 % of control | [14] 110 % of control

O=c1c2ccccc2sc2ccc3ccccc3c12
inactive: [16] 106 % of control | [17] 101 % of control | [18] 101 % of control

O=C(Nc1ccc(Cl)cc1)OCCN1CCOCC1
inactive: [13] 90 % of control | [4] 93 % of control | [14] 92 % of control | [5] 94 % of control | [15] 91 % of control | [6] 89 % of control

O=C(O)c1c2c(nc3c(Cl)cccc13)-c1ccccc1C2
inactive: [13] 102 % of control | [14] 107 % of control

BrC(Br)(Br)c1ccc2ccccc2n1
inactive: [13] 96 % of control | [14] 94 % of control | [15] 102 % of control

O=c1c([N+](=O)[O-])cn(O)cc1[N+](=O)[O-]
inactive: endpoint: mean survival time, dose: 100.0 mg/kg/injection, schedule: Q01DX001 (ip), vehicle: alkali diluted with saline 100 % of control | endpoint: mean survival time, dose: 200.0 mg/kg/injection, schedule: Q01DX001 (ip), vehicle: alkali diluted with saline 94 % of control | endpoint: mean survival time, dose: 400.0 mg/kg/injection, schedule: Q01DX001 (ip), vehicle: alkali diluted with saline 100 % of control

[NH-]C1CCCCC1[NH-].[NH-]C1CCCCC1[NH-].[Ni] (stereo unspecified)
inactive: [1] 110 % of control
